pEC50, pIC50: −log10 of the molar value. Values joined by “and” are separate entries in the source; they are usually repeats but may differ in a detail not shown here. Equal values may be shown once. Read-outs that look alike come from different tables or passages of the source.
Assays:
CLL cells = assay: Annexin V / 7-AAD apoptosis assay on CLL cells; type: cell-based, human; settings: for median percent drug-specific apoptosis: 72-hour; for median drug-specific apoptosis: n=43
Description: Cells were cultured in either of two different media: Hybridoma SFM with 10% FBS or RPMI 1640 medium (Sigma) supplemented with 5% heat-inactivated human AB serum (Sigma), 50 units/ml penicillin, 50 μg/ml streptomycin, 2 mM L-glutamine, 25 mM HEPES (N2-hydroxyethylpiperazine-N′-2-ethanesulfonic acid), 100 μM MEM non-essential amino acids, and 1 mM sodium pyruvate (GIBCO). CLL cell sensitivity to LMP-420 was not affected by culture media, as determined by direct comparison of the apoptotic effects observed in both media for seven samples. After drug activity in the presence of human AB serum was confirmed, further studies were performed in Hybridoma SFM with 10% FBS.
CLL cells were cultured at 2×10^6 cells/ml in a volume of 100 μl/well in a U-bottom 96-well tissue culture plate (BD Biosciences, San Jose, Calif.) with either vehicle control or with drug. After 24, 48, or 72 hours of incubation, cells were analyzed for apoptosis by three different methods. For the annexin-based assay, 100 μl of Guava Nexin Reagent (Millipore, Billerica, Mass.) was added for 20 min. Cells were analyzed for annexin V-PE and 7-AAD staining with flow cytometric analysis by the Guava EasyCyte™ Plus system (Millipore). To facilitate comparison of samples with different levels of spontaneous apoptosis, drug-specific apoptosis is reported. Drug-specific apoptosis excludes background spontaneous apoptosis and was calculated as follows: 100%×(drug-induced apoptosis−spontaneous apoptosis)/(100−spontaneous apoptosis) (Reference 13).

normal PBMCs = assay: [3H]-thymidine proliferation assay, mitogen-stimulated normal PBMCs; type: cell-based, human; settings: for pIC50: Homo sapiens, PBMC, 96 h, read-out: IC50 for suppression of mitogen-induced proliferation
Description: CLL cells (2×10^5 cells/well) were cultured in quadruplicate in a volume of 200 μl in 96-well tissue culture plates for 96 hours with 1 μM CpG-oligodeoxynucleotides (ODN) DSP30 (Reference 14) (Midland Certified Reagent Company, Midland, Tex.) and 100 units/ml IL-2 (R&D Systems) in the presence or absence of drug. As controls, cells were treated with media without DSP30/IL-2. Cells were incubated with 1 μCi/well [methyl-^3H]-thymidine (specific activity 6.7 Ci/mmol, PerkinElmer, Waltham, Mass., USA) for 14-18 hours prior to harvesting onto glass-fiber filters using a semi-automated cell harvester. [^3H]-thymidine incorporation was measured as counts per minute (cpm) using a Tri-Carb 2100 timed-resolved liquid scintillation counter (PerkinElmer). The same protocol was utilized for proliferation assays with normal PBMCs, with the exception that growth was stimulated by treatment with 10 μg/ml Phytohemagglutinin-P (PHA, Sigma), 5 μg/ml concanavalin A (ConA, Sigma), 2 μg/ml pokeweed mitogen (PWM, Sigma), 25 ng/ml muromonab-CD3 (α-CD3, Ortho Pharmaceuticals, Raritan, N.J.), or 50 ng/ml phorbol myristate acetate (PMA, Sigma) plus 1 μg/ml ionomycin (iono, Sigma) for 96 hours. Proliferation is reported as percent of control (drug-treated cpm/control-treated cpm×100%).

Nc1nc(Cl)c2ncn(CCCCCB(O)O)c2n1 [LMP-420, 2-amino-6-chloro-9-[5(dihydroxyboryl)-pentyl] purine] was tested, and the “median percent drug-specific apoptosis” value (CLL cells; 5,000 nM, mutated IgVH subgroup (n=30)) was 34%, the “median percent drug-specific apoptosis” value (CLL cells; 5,000 nM, unmutated IgVH subgroup (n=10)) was 59% and the median drug-specific apoptosis (CLL cells; 5,000 nM, 24 hours) was 15%. The median drug-specific apoptosis (CLL cells; 5,000 nM, 48 hours) was 28%, the median drug-specific apoptosis (CLL cells; 5,000 nM, 72 hours) was 32% and the “apoptosis, range” value (CLL cells; 5,000 nM, patients with 11q22 deletion or complex cytogenetics (n=3)) was 13 to 58% and 13-58%. For the same compound, the pEC50 (CLL cells; Homo sapiens, CLL cell, 72 hours, five-patient sample set, read-out: mean dose required for 50% drug-specific apoptosis by annexin V staining) was 5.30, the “staining indicative of primary necrosis (7-AAD-positive, annexin-V-negative)” value (CLL cells; all samples, 72 hours) was < 2% and the “samples in which apoptosis was induced (49 of 50)” value (CLL cells; highest dose (5,000 nM), 72 hours) was 98%. The “PBMC proliferation IC50 relative to ED50 in CLL cells” value (normal PBMCs) was 100- to 250 fold, the pIC50 (normal PBMCs; Con A, 96 hours) was 4.15 and the pIC50 (normal PBMCs; PHA, 96 hours) was < 4.05. The pIC50 (normal PBMCs; PMA/Iono, 96 hours) was < 4.05, the pIC50 (normal PBMCs; PWM, 96 hours) was < 4.05 and the pIC50 (normal PBMCs; α-CD3, 96 hours) was 4.48.

Reference: patent US20110319360A1, “Method of including apoptosis/Cell death in leukemia cell using a purine nucleoside analogue” (U.S. Department of Veterans Affairs, priority 2010, published 2011)
